This is an account of results in patent publication US7776872B2, “Diaminopyrimidines as P2X3 and P2X2/3 modulators” (Roche Palo Alto LLC, priority 2005, dated 2010).

For series [1], the target named is T1, rat P2X3 receptor (Rattus norvegicus, UniProt P49654).
T1 construct: expressed in transfected cells; host or cells: CHO-K1
T1 sequence (P49654 1-397): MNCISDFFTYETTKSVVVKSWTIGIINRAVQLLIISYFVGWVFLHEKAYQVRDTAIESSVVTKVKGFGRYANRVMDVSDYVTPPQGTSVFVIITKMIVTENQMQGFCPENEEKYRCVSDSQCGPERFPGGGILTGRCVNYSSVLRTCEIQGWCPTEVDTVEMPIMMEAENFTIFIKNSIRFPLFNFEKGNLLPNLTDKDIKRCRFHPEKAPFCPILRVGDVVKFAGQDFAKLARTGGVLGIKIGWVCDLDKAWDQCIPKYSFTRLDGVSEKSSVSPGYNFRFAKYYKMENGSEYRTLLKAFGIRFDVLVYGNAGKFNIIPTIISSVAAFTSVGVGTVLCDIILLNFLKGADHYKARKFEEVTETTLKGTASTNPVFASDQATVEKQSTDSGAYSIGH
Put plainly: P2X3 FLIPR (Fluorometric Imaging Plate Reader) assay, CHO-K1 cells. The series is classed as cell-based. The note with it: CHO-K1 cells transfected with rat P2X3; agonist α,β-meATP 1 μM; Fluo-3 calcium fluorescence. On the procedure:
(§1) CHO-K1 cells were transfected with cloned rat P2X3 or human P2X2/3 receptor subunits and passaged in flasks. 18-24 hours before the FLIPR experiment, cells were released from their flasks, centrifuged, and resuspended in nutrient medium at 2.5×10^5 cells/ml. The cells were aliquoted into black-walled 96-well plates at a density of 50,000 cells/well and incubated overnight in 5% CO2 at 37° C. On the day of the experiment, cells were washed in FLIPR buffer (calcium- and magnesium-free Hank's balanced salt solution, 10 mM HEPES, 2 mM CaCl2, 2.5 mM probenecid; FB). Each well received 100 μl FB and 100 μl of the fluorescent dye Fluo-3 AM [2 μM final conc.]. […]
(§2) Test compounds (dissolved in DMSO at 10 mM and serially diluted with FB) or vehicle were added to each well (25 μl of a 4X solution) and allowed to equilibrate for 20 minutes at room temperature. The plates were then placed in the FLIPR and a baseline fluorescence measurement (excitation at 488 nm and emission at 510-570 nm) was obtained for 10 seconds before a 100 µl/well agonist or vehicle addition. […] Fluorescence was measured for an additional 2 minutes at 1 second intervals after agonist addition. A final addition of ionomycin (5 μM, final concentration) was made to each well of the FLIPR test plate to establish cell viability and maximum fluorescence of dye-bound cytosolic calcium. […]

Series [2] deals with T2, human P2X2/3 receptor (Homo sapiens, UniProt P56373+Q9UBL9).
T2 construct: expressed in transfected cells; host or cells: CHO-K1
T2 sequence (Q9UBL9 1-471): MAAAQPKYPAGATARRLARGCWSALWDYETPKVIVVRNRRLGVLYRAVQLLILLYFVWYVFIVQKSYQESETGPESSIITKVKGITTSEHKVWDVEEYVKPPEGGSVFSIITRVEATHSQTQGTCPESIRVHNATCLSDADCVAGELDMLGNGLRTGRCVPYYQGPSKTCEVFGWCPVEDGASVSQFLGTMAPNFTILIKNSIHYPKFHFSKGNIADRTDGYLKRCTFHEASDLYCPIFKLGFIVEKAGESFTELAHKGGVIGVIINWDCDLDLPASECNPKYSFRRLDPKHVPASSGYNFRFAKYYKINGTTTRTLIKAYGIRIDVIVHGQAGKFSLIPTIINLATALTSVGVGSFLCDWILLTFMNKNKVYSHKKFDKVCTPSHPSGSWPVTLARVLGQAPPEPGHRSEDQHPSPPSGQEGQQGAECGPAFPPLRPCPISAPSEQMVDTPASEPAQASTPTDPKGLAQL
T2 sequence (P56373 1-397): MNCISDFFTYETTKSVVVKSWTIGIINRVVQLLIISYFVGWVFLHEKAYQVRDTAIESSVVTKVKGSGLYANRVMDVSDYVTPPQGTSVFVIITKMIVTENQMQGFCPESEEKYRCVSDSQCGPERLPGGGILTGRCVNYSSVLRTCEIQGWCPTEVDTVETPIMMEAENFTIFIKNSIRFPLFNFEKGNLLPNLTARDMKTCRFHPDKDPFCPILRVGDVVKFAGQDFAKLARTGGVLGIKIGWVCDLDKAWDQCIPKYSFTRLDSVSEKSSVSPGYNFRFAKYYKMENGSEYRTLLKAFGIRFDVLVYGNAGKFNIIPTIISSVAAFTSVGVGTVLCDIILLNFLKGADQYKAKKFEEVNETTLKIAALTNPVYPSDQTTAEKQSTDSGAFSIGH
Description: P2X2/3 FLIPR (Fluorometric Imaging Plate Reader) assay, CHO-K1 cells. The series is classed as cell-based. Conditions: CHO-K1 cells transfected with human P2X2/3; agonist α,β-meATP 5 μM; Fluo-3 calcium fluorescence. As to the method:
as §1, §2

The compound `CC(C)c1cc2ncccc2cc1Oc1cnc(N)nc1N` [5-(7-Isopropyl-quinolin-6-yloxy)-pyrimidine-2,4-diamine] gave a melting point of 206.9 to 208.2 °C. For the same compound, in series [1], the “pIC50 for the P2X3 receptor” value is on record as “approximately 7.42”. Further, the “pIC50 for the P2X2/3 receptor” value in series [2] is on record as “approximately 7.30”.

`Cc1cccc2cc(C(C)C)c(Oc3cnc(N)nc3N)cc12` [Compound 1, 5(3-Isopropyl-8-methyl-naphthalen-2-yloxy)-pyrimidine-2,4-diamine] gave a melting point of 148 °C.

`COc1ccc2cc(Oc3cnc(N)nc3N)c(C(C)C)cc2c1` [Compound 4, 5-(3-Isopropyl-6-methoxy-naphthalen-2-yloxy)-pyrimidine-2,4-diamine] gave a melting point of 170 to 172 °C.

`CC(C)c1cc2cccnc2cc1Oc1cnc(N)nc1N` [Compound 9, 5-(6-lsopropyl-quinolin-7-yloxy)-pyrimidine-2,4-diamine] returned a melting point of 276.3 to 278 °C.

In turn, `CC(C)c1cc2ncccc2cc1Oc1cnc(NC(CO)CO)nc1N` [Compound 11, 2-[4-Amino-5-(7-isopropyl-quinolin-6-yloxy)-pyrimidin-2-ylamino]-propane-1,3-diol] had a melting point of 171.9 to 174.4 °C.
